Reference: patent US20090041806A1, “USE OF PRODRUGS OF GABA ANALOGS, ANTISPASTICITY AGENTS, AND PRODRUGS OF GABA B RECEPTOR AGONISTS FOR TREATING SPASTICITY” (XenoPort, Inc., priority 2007, published 2009)

Assays:
[1] = Randomized, crossover, fed/fasted single-dose pharmacokinetic study of oral sustained release tablets of compound (7) in healthy adult subjects; details: for AUC of compound (7) in blood as percent of the corresponding AUC of gabapentin in blood / maximum intact prodrug concentration as percent of the corresponding peak gabapentin concentration: oral tablets
Experimental: A randomized, crossover, fed/fasted single-dose study of the safety, tolerability, and pharmacokinetics of oral administration of 1-{[α-isobutanoyloxyethoxy)carbonyl]aminomethyl}-1-cyclohexane acetic acid (7) in healthy adult subjects was conducted. The oral sustained release dosage form of Example 4 was used in this study. The study was designed to evaluate the performance of this formulation in humans in comparison with the commercial gabapentin capsule formulation (Neurontin®, Pfizer). Twelve healthy adult volunteers (7 males and 5 females) participated in the study. Mean body weight was 75.6 kg. All subjects received two different treatments in a random order with a one-week washout between treatments. The two treatments were: a single oral dose of Example 4 tablets (2×600 mg) after an overnight fast; and a single oral dose of Example 4 tablets (2×600 mg) after a high fat breakfast.
Blood and plasma samples were collected from all subjects prior to dosing, and at 0.5, 1, 1.5, 2, 3, 4, 6, 8, 12, 18, 24, and 36 hours after dosing. Urine samples were collected from all subjects prior to dosing, and complete urine output was obtained at the 0-4 h, 4-8 h, 8-12 h, 12-18 h, 18-24 h, and 24-36 h intervals after dosing. Blood samples were quenched immediately with methanol and stored frozen at […] Sample aliquots were prepared for analysis of gabapentin and compound (7) using sensitive and specific LC/MS/MS methods.

[2] = Uptake of gabapentin following intracolonic administration of gabapentin or gabapentin prodrugs in rats; assay type: in vivo; details: rat, dose equivalent to 25 mg gabapentin per kg
Experimental: Sustained release oral dosage forms, which release drug slowly over periods of 6-24 hours, generally release a significant proportion of the dose within the colon. […] This experiment was conducted to assess the suitability of gabapentin prodrugs for use in oral sustained release dosage forms.
Rats were obtained commercially and were pre-cannulated in the both the ascending colon and the jugular vein. Animals were conscious at the time of the experiment. All animals were fasted overnight and until 4 hours post-dosing. […]
were administered as a solution (in water or PEG 400) directly into the colon via the cannula at a dose equivalent to 25 mg of gabapentin per kg. […] Blood samples were analyzed as described below. […]
were used. […] The peaks were integrated using Analyst 1.1 quantitation software.

[3] = Uptake of R-baclofen following oral administration of R-baclofen prodrugs to cynomolgus monkeys; details: cynomolgus monkey, in vivo
Experimental: (5 mg baclofen-eq/kg) were administered by oral gavage to groups of four male cynomolgus monkeys as either an aqueous solution or suspension in 0.5% methylcellulose/0.1% Tween-80 respectively. […] The oral bioavailability of both prodrugs: • (sodium 4-{[(1S)-isobutanoyloxyisobutoxy]carbonylamino}-(3R)-(4-chlorophenyl)-butanoate; and • 4-{[(1S)-isobutanoyloxyisobutoxy]carbonylamino}-(3R)-(4-chlorophenyl)-butanoic acid;

[4] = cited from earlier work
[5] = oral; 2 mg t.i.d. R-baclofen equivalent to 10 mg t.i.d. racemic baclofen; cited from earlier work
[6] = oral baclofen; cited from earlier work

Which “maximum concentration of intact compound (7) in blood” value ([1]; human, in vivo, po) does the source give for `CC(OC(=O)NCC1(CC(=O)O)CCCCC1)OC(=O)C(C)C` (stereo not drawn) [compound (7), 1-{[(α-isobutanoyloxyethoxy)carbonyl]aminomethyl}-1-cyclohexane acetic acid] here?
Its value is 0.040 µg/mL.

And the “AUC of compound (7) in blood as percent of the corresponding AUC of gabapentin in blood” value ([1]; fasted subjects)?
Its value is 0.3%.

What about the “maximum intact prodrug concentration as percent of the corresponding peak gabapentin concentration” value ([1]; fasted subjects) of the same compound?
Its value is “approximately 1.0%”.

What about the “AUC of compound (7) in blood as percent of the corresponding AUC of gabapentin in blood” value ([1]; fed subjects) of the same compound?
Its value is “less than 0.1%”.

What about the “maximum intact prodrug concentration as percent of the corresponding peak gabapentin concentration” value ([1]; fed subjects) of the same compound?
The value was “approximately 0.3%”.

What about the “area under the gabapentin plasma concentration vs. time curve (AUC) relative to colonic administration of gabapentin itself” value [2] of the same compound?
Its value is “greater than 10 fold”.

What about the “maximum plasma concentration of gabapentin (Cmax) relative to colonic administration of gabapentin itself” value [2] of the same compound?
The value was “greater than 10 fold”.

Which “oral bioavailability as R-baclofen” value [3] does the source give for `CC(C)C(=O)O[C@@H](OC(=O)NC[C@H](CC(=O)[O-])c1ccc(Cl)cc1)C(C)C.[Na+]` [sodium 4-{[(1S)-isobutanoyloxyisobutoxy]carbonylamino}-(3R)-(4-chlorophenyl)-butanoate] here?
The value was “greater than 80%”.

Which “typical Tmax of immediate release gabapentin” value [4] does the source give for `NCC1(CC(=O)O)CCCCC1` [gabapentin] here?
Its value is 2 to 4 h.

For `NC[C@H](CC(=O)O)c1ccc(Cl)cc1` [R-baclofen, R-(−)-baclofen], which “potency of orally administered R-baclofen relative to orally administered racemic baclofen” value [5] is on record?
The value was “about 5 fold”.

With `NCC(CC(=O)O)c1ccc(Cl)cc1` (racemic) [Baclofen, (±)-4-amino-3-(4-chlorophenyl)butanoic acid] as the compound, how does the elimination half-life [6] read?
Its elimination half-life is 3 to 4 h.
